Legend:
patients with WD = test system: patients with WD
Excerpt: All patients who completed the 24-week Study Period were enrolled in a 36-month Extension Period.

[1] = test system: patients with Wilson disease (WD); experiment: Study 301: Unified Wilson Disease Rating Scale (UWDRS Parts II, III); type: in vivo, human
Protocol: The UWDRS scoring system was developed specifically for the motor and movement disorders associated with chronic copper neurotoxicity in WD. Some individual items/subscales of the UWDRS Part III (arising from a chair, gait, handwriting, and speech) in addition to the UWDRS Parts I, II, and III overall, were assessed to further define the range of burdensome signs and symptoms of WD, so as to further understand the assessment of treatment effects on patients with WD. The UWDRS scores for consciousness (Part I) and abnormal neurologic examination findings (Part III) will be determined by a trained neurologist rater who is blinded to study treatment randomization. These scores were used to provide a rigorous dataset for evaluating changes from baseline.
Unified Wilson Disease Rating Scale (Parts I, II, and III): The UWDRS is a clinical rating scale designed to evaluate the neurological manifestations of WD that generally can be divided into 3 movement disorder syndromes: dystonic, ataxic, and Parkinsonian syndrome. The UWDRS comprises 3 parts: UWDRS Part I (level of consciousness, item 1), UWDRS Part II (a patient-reported review of daily activity items [disability], items 2 to 11), and UWDRS Part III (a detailed neurological examination, items 12 to 34).
The UWDRS Part I and Part III were assessed by a neurologist who is blinded to the treatment randomization, while UWDRS Part II may be reported to a non-blinded member of the study team by the patient, family member, or caregiver. The UWDRS has not been formally evaluated in adolescents. However, the components of Part I (level of consciousness), Part II (patient or caregiver-reported disability) and Part III (neurologic examination findings) were not fundamentally different between adults and adolescents. Patients aged 12 years and older were expected to be able to comply with UWDRS assessments.
There were trends toward stability/improvement for both treatment groups. […] As approximately 50% of patients had baseline UWDRS scores of 0, and those patients that did have scores greater than zero were relatively low in the respective UWDRS Part II (score range: 0-40) and UWDRS Part III (score range: 0-175) scale range, there was little room for improvement.

[2] = test system: ^64Cu hepatic uptake, biliary copper excretion; settings: 4 WD patients, FIG. 30
Protocol: 15 minutes after intravenous administration of ^64Cu, a dynamic PET-MR scan was performed, followed by additional scans at 1, 2, 6, 20, 48, 54, and 68 hours. Venous blood samples were collected for quantitation of radioactivity at multiple time points.
The post-treatment ^64Cu PET-MR study was initiated on the 7th day, with serial PET-MR imaging conducted 1, 2, 6, 20, 48, 54, and 68 hours after intravenous administration of ^64Cu.
The study also assessed the kinetics of ^64Cu in the blood and its distribution among organs of interest. The SUV allows for semiquantitative assessment of copper in a desired volume of interest by measuring the ratio of observed copper activity to the total dose administered.

[3] = Study 301, patients symptomatic at baseline, Cohort 1
[4] = Study 301, patients symptomatic at baseline, Cohort 2
[5] = Study 301, patients symptomatic at baseline, Overall

## Bis-choline tetrathiomolybdate [BC-TTM]
Patients with WD; Study 201
  liver status, Modified Nazer Score: stabilized or improved in the majority of patients
Patients with WD; Study 201, p<0.0001
  neurological status, change from baseline in UWDRS Part III: significant improvements
Patients with WD; Study 201, p<0.001
  patient-reported disability, change from baseline in UWDRS Part II: significant improvements
Patients with WD; human, in vivo
  participants with total cholesterol increase above the ULN: 7 participants
  patients with reversible liver (function) test elevations: 39%
  tolerability: generally well-tolerated
[1]; Study 301, Full Analysis Set
  UWDRS Part II (0-40), Change from Baseline at 48 weeks, Mean: −0.6
  UWDRS Part II (0-40), Difference at 48 weeks, LSM (SE), BC-TTM vs SoC: 0.4 (0.51)
  UWDRS Part III (0-175), Change from Baseline at 48 weeks, Mean: −2.20
  UWDRS Part III (0-175), Difference at 48 weeks, LSM (SE), BC-TTM vs SoC: −0.09 (1.322)
  UWDRS Part III functional subscale (0-10), Change from Baseline at 48 weeks, Mean: −0.147
  UWDRS Part III functional subscale (0-10), Difference at 48 weeks, LSM (SE), BC-TTM vs SoC: −0.067 (0.1344)
  UWDRS Part III-arising from chair (0-4), Change from Baseline at 48 weeks, Mean: 0.0
  UWDRS Part III-arising from chair (0-4), Difference at 48 weeks, LSM (SE), BC-TTM vs SoC: 0.0 (0.06)
  UWDRS Part III-gait (0-10), Change from Baseline at 48 weeks, Mean: −0.06
  UWDRS Part III-gait (0-10), Difference at 48 weeks, LSM (SE), BC-TTM vs SoC: −0.15 (0.192)
  UWDRS Part III-handwriting (0-4), Change from Baseline at 48 weeks, Mean: −0.1
  UWDRS Part III-handwriting (0-4), Difference at 48 weeks, LSM (SE), BC-TTM vs SoC: −0.1 (0.09)
  UWDRS Part III-speech (0-4), Change from Baseline at 48 weeks, Mean: −0.1
  UWDRS Part III-speech (0-4), Difference at 48 weeks, LSM (SE), BC-TTM vs SoC: 0.0 (0.07)
[1]; Study 301, after adjusting for multiplicity (hierarchical testing)
  key secondary efficacy endpoints, BC-TTM versus SoC: none of the key secondary efficacy endpoints were statistically significantly different
[1]; [3]
  UWDRS Part III, Week 48 Change from Baseline, LSM Diff, BC-TTM vs SoC: −0.79
  UWDRS Part III, Week 48 Change from Baseline, Mean: −2.86
  UWDRS Part III, Week 48 Change from Baseline, Median: −2.00
[1]; Study 301, patients symptomatic at baseline, Cohort 1, MMRM
  UWDRS Part III, Week 48 Change from Baseline, LSM: −2.68
[1]; [4]
  UWDRS Part III, Week 48 Change from Baseline, LSM Diff (SE), BC-TTM vs SoC: 0.05 (5.041)
  UWDRS Part III, Week 48 Change from Baseline, Mean: −3.10
  UWDRS Part III, Week 48 Change from Baseline, Median: −3.00
[1]; Study 301, patients symptomatic at baseline, Cohort 2, MMRM
  UWDRS Part III, Week 48 Change from Baseline, LSM: 1.43
[1]; [5]
  UWDRS Part III, Week 48 Change from Baseline, LSM Diff, BC-TTM vs SoC: −0.33
  UWDRS Part III, Week 48 Change from Baseline, Mean: −2.91
  UWDRS Part III, Week 48 Change from Baseline, Median: −2.00
[1]; Study 301, patients symptomatic at baseline, Overall, MMRM
  UWDRS Part III, Week 48 Change from Baseline, LSM: −1.54
[2]
  mean SUV for the other organs after treatment: did not change

From patent US20250082674A1, “METHODS OF TREATING COPPER METABOLISM-ASSOCIATED DISEASES OR DISORDERS” (priority 2021, published 2025)
